Measured values taken from patent US20110059123A1, “Inhibition of the Survival of Colorectal Cancer by Cyclohexenone Compounds from Antrodia Camphorata” (GOLDEN BIOTECHNOLOGY CORPORATION, priority 2009, published 2011).

System: colorectal cancer cell line WiDr
Experiment: In vitro survival assay (MTT) for anti-colorectal cancer effects
Format: cell-based
Conditions: WiDr human colon adenocarcinoma cells, 48 hours treatment, survival rate
Experimental: Inhibiting effects of colorectal cancer cells by cyclohexenone compounds of Antrodia camphorata from example 1 were assessed according to the anticancer-drug screening model of National Cancer Institute (NCI). The compound 4-hydroxy-2,3-dimethoxy-6-methyl-5-(3,7,11-trimethyl-dodeca-2,6,10-trienyl)-cyclohex-2-enone from example 1 was added into the culture media of colorectal cancer cell line WiDr to determine the survival rates. Survival of cell was analyzed using MTT assay. WiDr cell line was a human colon adenocarcinoma cell line.
MTT assay is commonly used to analyze cell proliferation, survival rate of viable cells and cytotoxicity. MTT (3[4,5-dimethylthiazol-2-yl]-2,5-diphenyltetrazolium bromide) is a yellow dye which can be converted to water-insoluble purple formazan on the reductive cleavage of its tetrazolium ring by the succinate tetrazolium reductase in mitochondria of cells. The amount of formazan produced is used to detect the number of viable cells and calculate the survival rates.
The WiDr cells were cultivated in RPMI 1640 medium supplemented with 10% fetal bovine serum, 100 IU/ml of Penicillin and […] of Streptomycin at 37° C., 5% CO2 for 24 hours. Proliferated cells were washed once with PBS, treated with 1× trypsin-EDTA, and centrifuged at 1200 rpm for 5 min. […] The absorbances were measured at 570 nm with an ELISA Reader to determine the survival rates.

COC1=C(OC)C(O)C(C/C=C(\C)CC/C=C(\C)CCC=C(C)C)C(C)C1=O (stereo not shown) [formula 2, 4-hydroxy-2,3-dimethoxy-6-methyl-5-(3,7,11-trimethyl-dodeca-2,6,10-trienyl)-cyclohex-2-enone]
IC50: 0.92 µg/mL
